Reference: patent US5760092A, “Allocolchinones and uses thereof” (Brandeis University, priority 1996, dated 1998)
“And” between values parts separate entries of the source, which are not always exact repeats. Equal values may be shown once. Read-outs that look alike come from different tables or passages of the source.

What was measured:
[1] = tested on: HOP-92 non-small cell lung cancer cells
[2] = tested on: HOP-62 non-small cell lung cancer cells; experiment: cells; details: Homo sapiens

`COc1cc2c(c(OC)c1OC)-c1ccc(C(C)=O)cc1C(NC(C)=O)CC2` (centres unmarked) was tested, and the “Percent Growth” value ([1]; log10 conc -6.0, 1 µM) was 11%, the “Percent Growth” value ([1]; log10 conc -7.0, 0.1 µM) was 24% and 45% and the “Percent Growth” value ([1]; log10 conc -8.0, 0.01 µM) was 45% and 66%. It also gave a GI50 ([2]; HOP-62) of 7.68 nM, an activity at 100 µM ([2]; HOP-62, read-out: Percent Growth, log10 conc -4.0) of 22% and an activity at 10 µM ([2]; HOP-62, read-out: Percent Growth, log10 conc -5.0) of 20%. For the same compound, the activity at 1 µM ([2]; HOP-62, read-out: Percent Growth, log10 conc -6.0) was 44%, the activity at 0.1 µM ([2]; HOP-62, read-out: Percent Growth, log10 conc -7.0) was 46% and the activity at 0.01 µM ([2]; HOP-62, read-out: Percent Growth, log10 conc -8.0) was 47%. The activity at 0.001 µM ([2]; HOP-62, read-out: Percent Growth, log10 conc -9.0) was 77% and the activity at 0.0001 µM ([2]; HOP-62, read-out: Percent Growth, log10 conc -10.0) was 101%.
